Tested on: 922993-354-T-J3-PDC complex spheroid viability
Experiment: Anticancer human tumor 922993-354-T-J3-PDC patient-derived endometrial carcinoma cell line growth inhibition [POLQ]
Conditions: for IC50: curve of first compound; for viability, T/C: stronger effect = lower value
Procedure: Multicellular complex tumor spheroid response to Polymerase (POL) inhibitors (novobiocin, ART-558, RP6685) in combination with a variety of drugs and investigational agents in selected tumor cell lines
The POL inhibitors (novobiocin, ART-558, and RP6685) were evaluated both individually and in combination with standard of care and investigational anticancer small molecules within a complex spheroid model of solid tumors. . Complex spheroids include a stromal component modeled by human endothelial cells (HUVEC) and fibroblasts modeled by human mesenchymal stem cells (MSCs). The concentration ranges selected for each drug and investigational agent were based upon clinically achievable concentrations if the clinical Cmax of the agent was known.
Compounds. The drugs and investigational agents: novobiocin (NSC847541), ART-558 (NSC835418), RP-6685 (NSC848927), peposertib (NSC802822), ceralasertib (NSC780249), elimusertib (NSC800525), camonsertib (NSC841442), AZD-1390 (NSC803789), olaparib (NSC753686), talazoparib (NSC767125), rucaparib (NSC756644), sotorasib (NSC818433), MRTX-1133 (NSC836407), SN-38 (NSC673596), topotecan (NSC609699), epotoside (NSC141540), doxorubicin (NSC123127), gemcitabine (NSC613327), 5-fluorouracil (NSC19893), paclitaxel (NSC125973), vemurafenib (NSC761431), MSA-2 (NSC828583), SN-011 (NSC837082), adavosertib (NSC754352), prexasertib (NSC758257), carboplatin (NSC241240) and oxaliplatin (NSC266046), were obtained from the National Cancer Institute (NCI) Developmental Therapeutics Program Chemical Repository (21). The FDA-approved anticancer drug set is available from the Developmental Therapeutics Program at https://dtp.cancer.gov/organization/dscb/obtaining/. […] The stock solutions were prepared in dimethyl sulfoxide (DMSO, Sigma-Aldrich, St. Louis, MO, cat. D2650), except for the platinum compounds which were prepared in saline (Quality Biological, Gaithersburg, MD, cat. 114-055-101), at 800-fold the tested concentration and stored at -70 degrees C prior to their use. All drugs and investigational agents were tested over a range starting from a high concentration at or near the clinical Cmax and decreasing in half-log increments. If the clinical Cmax for an agent had not been determined, the highest concentration tested was 10 microM, except for SN-38, which was tested at a high concentration of 1 microM.
Cell Culture. All cells were maintained in an incubator at 37 degrees C and 5% CO2 with 95% humidity. The PDC lines were cultured according to standard operating procedures established by the NCI PDMR (https://pdmr.cancer.gov). Table 3 of the manuscript, lists the cell lines along with the number of the three cell types plated to form the mct-spheroids and media for tumor cell growth. After thawing, all PDC lines, except 997537-175-T-J1-PDC and 415267-285-R-J2-PDC, were cultured in Matrigel-coated flasks prepared with a working solution of 1X Ham's F-12 nutrient mix, without supplementation (Thermo Fisher Scientific, cat. 11765054), 100 U/mL penicillin-streptomycin (Thermo Fisher Scientific, cat. 15140122), and 2.5% Matrigel (Corning Inc., Corning, NY, cat. 354248) for the first three passages. The two PDC lines 997537-175-T-J1-PDC and 415267-285-R-J2-PDC were cultured on uncoated flasks. The 857933-349-R-J2-PDC line was cultured in 6C/Colon 1B media containing advanced DMEM/F-12 (Thermo Fisher Scientific, cat. 12634028), 10 mM HEPES (Thermo Fisher Scientific, cat. 15630080), 1X GlutaMAX supplement (Thermo Fisher Scientific, cat. 35050061), 0.1 mg/mL primocin (InvivoGen, San Diego, CA, cat. ant-pm-2), 10% defined fetal bovine serum, heat inactivated (HyClone Laboratories Inc., Logan, UT, cat. SH30070.03HI), 50% L-WRN conditioned media (ATCC, cat. CRL-3276), 1.25 mM N-Acetyl-L-cysteine (Sigma-Aldrich, cat. A9165), 10 mM nicotinamide (Sigma-Aldrich, cat. N0636), 1X B-27 supplement (Thermo Fisher Scientific, cat. 17504044), 1X N-2 supplement (Thermo Fisher Scientific, cat. […]

[1] = second compound 0.0316 µM, first compound 0.0316 µM
[2] = second compound 0.0316 µM, first compound 0.1 µM
[3] = second compound 0.0316 µM, first compound 0.316 µM
[4] = second compound 0.0316 µM, first compound 1 µM
[5] = second compound 0.1 µM, first compound 0.0316 µM
[6] = second compound 0.1 µM, first compound 0.1 µM
[7] = second compound 0.1 µM, first compound 0.316 µM
[8] = second compound 0.1 µM, first compound 1 µM
[9] = second compound 0.316 µM, first compound 0.0316 µM
[10] = second compound 0.316 µM, first compound 0.1 µM
[11] = second compound 0.316 µM, first compound 0.316 µM
[12] = second compound 0.316 µM, first compound 1 µM
[13] = second compound 1 µM, first compound 0.0316 µM
[14] = second compound 1 µM, first compound 0.1 µM
[15] = second compound 1 µM, first compound 0.316 µM
[16] = second compound 1 µM, first compound 1 µM
[17] = second compound 3.16 µM, first compound 0.0316 µM
[18] = second compound 3.16 µM, first compound 0.1 µM
[19] = second compound 3.16 µM, first compound 0.316 µM
[20] = second compound 3.16 µM, first compound 1 µM
[21] = second compound 10 µM, first compound 0.0316 µM
[22] = second compound 10 µM, first compound 0.1 µM
[23] = second compound 10 µM, first compound 0.316 µM
[24] = second compound 10 µM, first compound 1 µM
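Further: spheroids exposed to the agents for one week.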
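Wherever viability, T/C is given: 100% = DMSO vehicle control wells.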

CCc1c2c(nc3ccc(O)cc13)-c1cc3c(c(=O)n1C2)COC(=O)[C@]3(O)CC + COC1C(OC(N)=O)C(O)C(Oc2ccc3c(O)c(NC(=O)c4ccc(O)c(CC=C(C)C)c4)c(=O)oc3c2C)OC1(C)C
IC50 (second compound 0.0316 µM): 0.00629 µM | IC50 (second compound 0.1 µM): 0.0082 µM | IC50 (second compound 0.316 µM): 0.00819 µM | IC50 (second compound 1 µM): 0.00748 µM | IC50 (second compound 3.16 µM): 0.00704 µM | IC50 (second compound 10 µM): 0.00752 µM | viability, T/C (second compound 0.0316 µM, first compound 0.00316 µM): 81.4% | viability, T/C (second compound 0.0316 µM, first compound 0.01 µM): 28.9% | viability, T/C [1]: 14.3% | viability, T/C [2]: 11.3% | viability, T/C [3]: 13.4% | viability, T/C [4]: 15.7% | viability, T/C (second compound 0.1 µM, first compound 0.00316 µM): 85.7% | viability, T/C (second compound 0.1 µM, first compound 0.01 µM): 42.6% | viability, T/C [5]: 14.8% | viability, T/C [6]: 12.7% | viability, T/C [7]: 12.1% | viability, T/C [8]: 17.8% | viability, T/C (second compound 0.316 µM, first compound 0.00316 µM): 85.5% | viability, T/C (second compound 0.316 µM, first compound 0.01 µM): 42.5% | viability, T/C [9]: 12% | viability, T/C [10]: 11.8% | viability, T/C [11]: 11.8% | viability, T/C [12]: 19.4% | viability, T/C (second compound 1 µM, first compound 0.00316 µM): 85.6% | viability, T/C (second compound 1 µM, first compound 0.01 µM): 37.9% | viability, T/C [13]: 11.6% | viability, T/C [14]: 9.81% | viability, T/C [15]: 12.3% | viability, T/C [16]: 16.5% | viability, T/C (second compound 3.16 µM, first compound 0.00316 µM): 76.3% | viability, T/C (second compound 3.16 µM, first compound 0.01 µM): 38.5% | viability, T/C [17]: 15.2% | viability, T/C [18]: 11.2% | viability, T/C [19]: 14.2% | viability, T/C [20]: 19.2% | viability, T/C (second compound 10 µM, first compound 0.00316 µM): 83.8% | viability, T/C (second compound 10 µM, first compound 0.01 µM): 38.8% | viability, T/C [21]: 10% | viability, T/C [22]: 10.3% | viability, T/C [23]: 13.1% | viability, T/C [24]: 17%

COc1cc(C2c3cc4c(cc3C(OC3OC5COC(C)OC5C(O)C3O)C3COC(=O)C23)OCO4)cc(OC)c1O (centres undefined) + COC1C(OC(N)=O)C(O)C(Oc2ccc3c(O)c(NC(=O)c4ccc(O)c(CC=C(C)C)c4)c(=O)oc3c2C)OC1(C)C
IC50 (second compound 0.0316 µM): 5.98 µM | IC50 (second compound 0.1 µM): 7.74 µM | IC50 (second compound 0.316 µM): 8.38 µM | IC50 (second compound 1 µM): 7 µM | IC50 (second compound 3.16 µM): 7.13 µM | IC50 (second compound 10 µM): 7.81 µM | viability, T/C [1]: 98% | viability, T/C [2]: 91% | viability, T/C [3]: 100% | viability, T/C [4]: 98.6% | viability, T/C (second compound 0.0316 µM, first compound 3.16 µM): 74.1% | viability, T/C (second compound 0.0316 µM, first compound 10 µM): 30.7% | viability, T/C [5]: 99.7% | viability, T/C [6]: 89.4% | viability, T/C [7]: 93.9% | viability, T/C [8]: 88.3% | viability, T/C (second compound 0.1 µM, first compound 3.16 µM): 72.9% | viability, T/C (second compound 0.1 µM, first compound 10 µM): 43.2% | viability, T/C [9]: 107% | viability, T/C [10]: 97.7% | viability, T/C [11]: 106% | viability, T/C [12]: 90% | viability, T/C (second compound 0.316 µM, first compound 3.16 µM): 69.6% | viability, T/C (second compound 0.316 µM, first compound 10 µM): 46.4% | viability, T/C [13]: 96.2% | viability, T/C [14]: 93.8% | viability, T/C [15]: 91.9% | viability, T/C [16]: 89.2% | viability, T/C (second compound 1 µM, first compound 3.16 µM): 72.9% | viability, T/C (second compound 1 µM, first compound 10 µM): 39.5% | viability, T/C [17]: 99.7% | viability, T/C [18]: 97.7% | viability, T/C [19]: 89.2% | viability, T/C [20]: 88.6% | viability, T/C (second compound 3.16 µM, first compound 3.16 µM): 81.8% | viability, T/C (second compound 3.16 µM, first compound 10 µM): 37.1% | viability, T/C [21]: 72.1% | viability, T/C [22]: 84.5% | viability, T/C [23]: 89.4% | viability, T/C [24]: 76.1% | viability, T/C (second compound 10 µM, first compound 3.16 µM): 85.1% | viability, T/C (second compound 10 µM, first compound 10 µM): 41.6%

Reference: PubChem BioAssay AID1963830 (Molecular Pharmacology Branch, DTP, NCI, 2024)
